# Square brackets hold non-standard residues; d marks the D form. d(pGlu) = O=C1CC[C@H](C(=O)O)N1; pGlu = O=C1CC[C@@H](C(=O)O)N1; Emo = not defined here
# T1: rat pituitary GnRH receptors (Rattus norvegicus, UniProt P30969)
# T1 construct: from tissue; host or cells: rat pituitary membranes (Wistar-derived rats)
# T1 sequence (P30969 1-327): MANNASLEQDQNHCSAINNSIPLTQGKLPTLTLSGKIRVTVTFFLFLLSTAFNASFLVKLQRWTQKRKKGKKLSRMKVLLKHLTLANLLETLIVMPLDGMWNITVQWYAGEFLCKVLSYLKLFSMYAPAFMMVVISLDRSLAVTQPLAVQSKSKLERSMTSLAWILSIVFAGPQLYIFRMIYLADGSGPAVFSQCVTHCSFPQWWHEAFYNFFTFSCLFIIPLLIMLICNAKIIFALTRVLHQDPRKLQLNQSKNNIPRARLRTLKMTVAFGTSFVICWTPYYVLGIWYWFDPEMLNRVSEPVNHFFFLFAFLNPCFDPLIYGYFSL
# T2: rat pituitary GnRH receptor (rat, UniProt P30969 1-327)
# T2 construct: whole, on cells; Native receptor; also called GnRH receptors; rat pituitary receptors
# T2 sequence (looked up): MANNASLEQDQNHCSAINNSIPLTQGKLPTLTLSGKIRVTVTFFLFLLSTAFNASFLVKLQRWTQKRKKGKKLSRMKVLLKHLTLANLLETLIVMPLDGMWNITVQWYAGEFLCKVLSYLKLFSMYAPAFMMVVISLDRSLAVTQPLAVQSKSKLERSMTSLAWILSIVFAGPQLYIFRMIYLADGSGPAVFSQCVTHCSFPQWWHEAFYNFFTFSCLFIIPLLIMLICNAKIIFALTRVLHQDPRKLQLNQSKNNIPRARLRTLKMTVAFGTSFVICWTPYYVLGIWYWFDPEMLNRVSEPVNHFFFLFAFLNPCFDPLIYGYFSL
# Key:
# [1] = system: primary cultures of rat pituitary cells; assay: Effect of GnRH antagonist on LH secretion stimulated by [D-Lys6(Emo)]GnRH; assay type: cell-based; details: [D-Lys6(Emo)]GnRH 20 pM, antagonist 100 nM, 4 h; FIG. 5
# Description: To determine the effect of a GnRH antagonist ([D-pyr^1, D-Phe^2, D-Trp^3,6]GnRH) on the induction of LH secretion from primary cultures of rat pituitary cells stimulated by [D-Lys^6(Emo)]GnRH, cells were incubated for 4 h at 37° C. with [D-Lys^6(Emo)]GnRH (20 pM) in the absence or presence of the GnRH antagonist (100 nM). The media were collected and LH concentration was determined by RIA (FIG. 5). Results are the mean±SEM of LH concentrations obtained from two experiments (4 wells/experimental group, each).
# [2] = Relative hydrophobicity by elution from RP-18 HPLC column; assay type: physicochemical; details: percent of buffer B in which the analog was eluted from RP-18 column
# Excerpt: All chemicals and reagents were of analytical grade. Rink amide resin, 9-fluorenylmethoxycarbonyl (Fmoc) protected amino acid derivatives, and all the reagents for solid-phase peptide synthesis were purchased from Novabiochem (Läufelfingen, Switzerland). Side-chain protecting groups employed for peptide synthesis were as follows: Arg, 2,2,4,6,7-pentamethyldihydrobenzofuran-5-sulfonyl (Pbf); His, trityl (Trt); D-Lys, 4-methyltrityl (Mtt) or tert-butyloxycarbonyl (Boc); Trp, tert-butyloxycarbonyl (Boc); Ser and Tyr, tert-butyl (tBu). Reversed phase HPLC was performed on a Spectra-Physics SP-8800 liquid chromatography system equipped with an Applied Biosystems 757 variable wavelength absorbance detector. HPLC prepacked columns were: Lichrocart, containing Lichrosorb RP-18 (250×10 mm; 7 μm, Merck, Darmstadt, Germany) for semi-preparative purification and Lichrospher 100 RP-18 (250×4 mm; 5 μm, Merck, Darmstadt, Germany) and wide pore butyl C4 (250×4.6 mm; 5 μm, J. T. Baker Inc., Phillipsburg, N.J.) for analytical purposes. HPLC purification and analysis were achieved by using a linear gradient established between 0.1% trifluoroacetic acid […] in water as buffer A and 0.1% TFA in 75% aqueous acetonitrile as buffer B. Eluent composition was 10-100% B over 40 mlin, using RP-18 column, and a gradient of 0-100% B over 40 min employing a wide pore butyl (C4) column. N-(2noro-1,4-naphtoqumonyl)-β-alanine (NQ), 1,6,8-Trihydroxy-3-carboxylic acid-anthraquinone (Emo) and 2-hydroxymethyl-anthraquinone hemiglutarate (AntrQ) were synthesized as described^14,24,27 (for chemical structure see FIG. 1).
# [3] = target: T1, rat pituitary GnRH receptors; assay: Displacement binding assay with 125I[D-Lys6]GnRH on rat pituitary membranes; details: vs [D-Lys6]GnRH
# Description: Specific binding was calculated by subtracting the non-specific binding from the maximal binding, determined in the absence of any competing peptide. Results are the mean of two experiments carried out in triplicates. SEM values are omitted for clarity (FIG. 3).
# [4] = system: primary cultures of rat pituitary cells; assay: LH releasing potency in primary rat pituitary cell cultures; assay type: cell-based; details: 4 h, 37° C.; compared to [D-Lys6]GnRH; FIG. 4
# Description: The media were then collected and LH concentration were analyzed by double-antibody radioimmunoassay (RIA)^32 using kits kindly supplied by the National Institute of Arthritis, Metabolism and Digestive Diseases (NIMDD). Results (FIG. 4) are expressed in terms of LH-RP-3 rat reference preparation, and are the mean±SEM of LH concentration of two experiments (4 wells/experimental group, each). The basal release after 4 h was 9.41±2 ng/mL.
# LH release = assay: In vivo LH release after intraperitoneal administration; set-up: species or system rat; details: six h after administration; 0.04 vs 0.4 nmol/rat i.p.
# Description: The ability of [D-Lys^6(Emo)]GnRH to bind GnRH receptors and promote LH release in vitro, prompted the evaluation of its in vivo activity.
# Blood samples were withdrawn by cardiac puncture under light ether anesthesia at the indicated time intervals, and serum LH levels were determined by RIA as described above (FIG. 6). Results are the mean±SEM of LH concentrations in the serum of five animals/experimental group. The LH concentration was determined using three different dilutions of each serum sample. Similar results were obtained in two other experiments.
# [5] = system: testes and prostate glands; assay: Long-term treatment of male rats: weight of testes and prostate glands; assay type: in vivo; details: 0.1 nmol/rat daily for 7 days vs parent peptide 1 nmol/rat; FIG. 7
# Description: Control rats were injected daily with 0.5 mL of PBS. Rats were sacrificed 24 h after the last injection, and the testes and prostate glands were immediately dissected and weighed (FIG. 7). Results are the meant±SEM of the weight of the organs (six animals/experimental group).
# [6] = target: T3, human serum albumin (HSA) (Homo sapiens, UniProt P02768); assay: Binding to HSA; assay type: in vitro ADME; details: 37° C., 3 h; FIG. 8
# T3 construct: purchased Sigma, St. Louis, Mo
# Description: The concentration of HSA in the solution was determined using a molar extinction coefficient of 39,000 M^−1 cm^−1 at 277.5 nm^33. The unbound compound was then separated from the HSA solution by applying it on to a Centricon® concentrator column (Amicon Inc., Beverly, Mass.) with a band pass membrane of […] according to the manufacture's protocol. The HSA bound compound (˜20 μL) was then precipitated by adding it to acetonitrile (1 mL). The supernatant was kept and the precipitate was dissolved in PBS (100 μL) and re-precipitated. The combined supernatants were evaporated, the residue was dissolved in water containing 0.1% TFA (buffer A) and analyzed by HPLC to determine the amount of the tested compounds. Results represent the mean of two experiments (FIG. 8).
# αT3-1 cells [7] = assay: In vitro toxicity / phototoxicity (XTT cell survival); assay type: cell-based, mouse; details: for phototoxicity to αT3-1 cells: 10 μM, illuminated, FIG. 9; for toxicity to αT3-1 cells in the dark: incubated in the dark
# Description: αT3-1 cells (50,000 cells/well) were plated in 96-well tissue culture plates in 0.1 mL of complete medium. After 24 h the medium was changed and cells were incubated in the same medium (without serum and phenol red) containing different concentrations of the tested compounds for 4 h at 37° C. The cells were then washed (×3) with PBS and illuminated (λmax=400 nm) in PBS. The fluence rate was 14.3 mW cm^−2 with a total fluence of 17 J cm^−2. Following illumination the media were replaced by complete medium and the plates were incubated for additional 24 h at 37° C. Cell survival was determined using the XTT (Biological Industries, Beit-Haemek, Israel) kit following the manufacture's protocol. Values are expressed as % survival.
# αT3-1 cells [8] = assay: DNA fragmentation assay; assay type: cell-based, mouse; details: 10 μM, FIG. 10; for DNA fragmentation in the dark: darkness; for DNA fragmentation upon illumination: illuminated
# Description: FIG. 10. DNA cleavage in cells treated with [D-Lys^6(Emo)]GnRH and emodic acid. αT3-1 cells were incubated; in darkness with 10 μM of the tested compounds, washed and illuminated. After 24 h of incubation DNA was isolated and analyzed by gel electrophoresis. Lanes 1, 3 and 5 represent DNA of cells treated with 1% DMSO in PBS, emodic acid or [D-Lys^6(Emo)]GnRH, respectively, followed by illumination. Lane 2, 4 and 6 represent cells treated with 1% DMSO in PBS, emodic acid, or [D-Lys^6(Emo)]GnRH, respectively, in darkness.
# αT3-1 cells (×10^6/dish) were incubated in phenol red and serum free complete medium (37° C., 5% CO2) with the tested compounds for 5 h in the dark. Cells were then washed with PBS (×3) and illuminated or remained in darkness as described earlier. The media were then replaced by complete medium and cells were incubated for additional 24 h. DNA was then isolated, using Wizard® genomic DNA purification kit (Promega, Madison, Wis.) following the company's protocol and analyzed by gel electrophoresis (0.4% cross linked agarose, ethidium bromide staining).
# [9] = literature ref 5; cited from earlier work
# [10] = literature ref 14; cited from earlier work
# [11] = system: human breast and prostate cancer; details: literature ref 14; cited from earlier work
# [12] = target: T2, rat pituitary GnRH receptor; assay: displacement of 125I[D-Lys6]GnRH from rat pituitary membranes
# Description: Briefly, membranes were incubated for 90 min at 4° C. with ¹²⁵I[D-Lys⁶]GnRH and with the unlabeled peptides. Non-specific binding was defined as the residual binding in the presence of excess [D-Lys⁶]GnRH (1 μM). Specific binding was calculated by subtracting the non-specific binding from the maximal binding, determined in the absence of any competing peptide. Results are the mean of two experiments carried out in triplicates. SEM values are omitted for clarity (FIG. 3).
# [13] = target: T2, rat pituitary GnRH receptor; assay: displacement of 125I[D-Lys6]GnRH from proestrous rat pituitary membranes
# T3 sequence (P02768 25-609): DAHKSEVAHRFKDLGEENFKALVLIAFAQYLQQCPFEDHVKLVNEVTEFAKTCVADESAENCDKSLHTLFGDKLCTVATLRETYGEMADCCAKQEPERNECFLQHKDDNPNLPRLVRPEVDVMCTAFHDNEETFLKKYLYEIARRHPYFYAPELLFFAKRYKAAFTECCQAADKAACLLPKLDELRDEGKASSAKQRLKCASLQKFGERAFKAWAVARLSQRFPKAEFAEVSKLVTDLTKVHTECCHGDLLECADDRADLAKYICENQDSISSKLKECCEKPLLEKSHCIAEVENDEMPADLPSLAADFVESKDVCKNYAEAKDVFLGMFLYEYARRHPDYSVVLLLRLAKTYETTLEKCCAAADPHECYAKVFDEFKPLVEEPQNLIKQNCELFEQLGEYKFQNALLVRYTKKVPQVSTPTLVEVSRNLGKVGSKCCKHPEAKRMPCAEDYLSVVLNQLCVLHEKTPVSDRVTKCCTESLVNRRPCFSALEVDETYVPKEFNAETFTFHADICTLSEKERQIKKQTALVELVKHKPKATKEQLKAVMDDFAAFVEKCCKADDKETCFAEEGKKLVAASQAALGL
Molecule,Hydrophobicity (% B) [2] [% B],binding to HSA [6],phototoxicity to αT3-1 cells (αT3-1 cells [7]),toxicity to αT3-1 cells in the dark (αT3-1 cells [7]),DNA fragmentation in the dark (αT3-1 cells [8]),DNA fragmentation upon illumination (αT3-1 cells [8]),further results
"[D-pGlu^1, D-Phe^2, D-Trp^3,6]GnRH ([d(pGlu)][dF][dW]SY[dW]LRPG-NH2; SMILES CC(C)C[C@H](NC(=O)[C@@H](Cc1c[nH]c2ccccc12)NC(=O)[C@H](Cc1ccc(O)cc1)NC(=O)[C@H](CO)NC(=O)[C@@H](Cc1c[nH]c2ccccc12)NC(=O)[C@@H](Cc1ccccc1)NC(=O)[C@H]1CCC(=O)N1)C(=O)N[C@@H](CCCNC(=N)N)C(=O)N1CCC[C@H]1C(=O)NCC(N)=O) [GnRH antagonist]",–,–,–,–,–,–,inhibition of [D-Lys6(Emo)]GnRH-induced LH secretion [1]: completely inhibited
"CC(C)C[C@H](NC(=O)[C@@H](CCCCNC(=O)c1cc(O)c2c(c1)C(=O)c1cc(O)cc(O)c1C2=O)NC(=O)[C@H](Cc1ccc(O)cc1)NC(=O)[C@H](CO)NC(=O)[C@H](Cc1c[nH]c2ccccc12)NC(=O)[C@H](Cc1c[nH]cn1)NC(=O)[C@@H]1CCC(=O)N1)C(=O)N[C@@H](CCCNC(=N)N)C(=O)N1CCC[C@H]1C(=O)NCC(N)=O [[D-Lys^6(Emo)]GnRH, [D-Lys^6(1,3,8-trihydroxy-6-carboxy-anthraquinone)]GnRH]",66,binds significantly to HSA,did not exhibit any toxicity,did not show any toxicity,did not cause any DNA fragmentation,but not [D-Lys^6(Emo)]GnRH (lane 5) induced DNA fragmentation,reduction of affinity to GnRH receptors compared to the parent peptide [3]: about 3 fold; LH releasing activity in vitro [4]: highest bioactivity; LH levels relative to group treated with [D-Lys6]GnRH (LH release): about 6 folds; decrease in testicular and ventral prostate gland weights [5]: greater decrease
pGlu-His-Trp-Ser-Tyr-Gly-Leu-Arg-Pro-Gly-NH2 [GnRH],–,–,–,–,–,–,half-life time in the general circulation [9]: 2 to 4 min
"CC(C)C[C@H](NC(=O)[C@@H](CCCCNC(=O)CCCC(=O)OCc1ccc2c(c1)C(=O)c1ccccc1C2=O)NC(=O)[C@H](Cc1ccc(O)cc1)NC(=O)[C@H](CO)NC(=O)[C@H](Cc1c[nH]c2ccccc12)NC(=O)[C@H](Cc1c[nH]cn1)NC(=O)[C@@H]1CCC(=O)N1)C(=O)N[C@@H](CCCNC(=N)N)C(=O)N1CCC[C@H]1C(=O)NCC(N)=O [[D-Lys^6(AntrQ)]GnRH, [D-Lys^6(2-hydroxymethyl-anthra-quinone hemiglutarate)] GnRH]",84,–,–,–,–,–,increase of binding affinity to GnRH receptors compared to the parent peptide [3]: 5 folds; biological activity relative to the parent peptide [10]: five-fold higher; growth of human breast and prostate cancer [11]: inhibited the growth
O=C(O)c1cc(O)c2c(c1)C(=O)c1cc(O)cc(O)c1C2=O [emodic acid],–,binds to HSA,significant phototoxicity,did not show any toxicity,did not cause any DNA fragmentation,induced DNA fragmentation,–
"[pGlu]HWSY[dK](Emo)LRPG-NH2 (not fully specified; printed as [D-Lys^6(1,3,8-trihydroxy-6-carboxy-anthraquinone)]GnRH; reading uncertain, Emodic acid conjugate of [D-Lys6]GnRH, an agonist; also called [D-Lys^6(Emo)]GnRH; [D-(Emo)]GnRH) [[D-Lys^6(1,3,8-trihydroxy-6-carboxy-anthraquinone)]GnRH]",–,–,–,–,–,–,IC50 [12]: 0.25 nM; IC50 [13]: 2.6 nM

# Reference: patent US20060100154A1, “Long-acting gonadotropin-releasing hormone analogs and methods of use thereof” (YEDA RESEARCH AND DEVELOPMENT CO, priority 2005, published 2006)
